{
  "source": "patent US5561131A",
  "about": "“Defaunation method” (Mallinckrodt Veterinary, Inc., priority 1991, dated 1996)",
  "tested_on": "rumen protozoa",
  "test": "Defaunation using single or 2 or 3 repeated doses in sheep",
  "type": "in vivo",
  "settings": "individual sheep",
  "method": "Sheep were fed a diet of 900 g oaten chaff daily, except that food and water were withheld for 19 hours before and 24 hours after dosing. Each dose was prepared by mixing compound 37 with 20 ml of ethanol followed by 200 ml of centrifuged rumen liquor, to give a dose of 167 mg/kg body weight, administered by rumen tube. Rumen protozoa were counted weekly following the final treatment.\nTable 9: The effect of administering compound 37 (from table 1) on mean protozoal numbers in rumen in sheep.",
  "note": "Where “and” joins values, the source holds several entries; their conditions need not be identical. Equal entries are not always repeated.",
  "data": [
    {"compound": "Clc1nc(Cl)nc(Nc2ccccc2Cl)n1", "note": "[Compound 37, 2,4-dichloro-6-(2-chloroanilino)-1,3,5-triazine]", "values": [
      {"measurement": "Protozoal Count", "setting": "2 doses 1 wk apart at 167 mg/kg/dose, week 0, 167 mg/kg", "value": "64,000 number/mL of rumen fluid and 68,500 number/mL of rumen fluid and 94,000 number/mL of rumen fluid"},
      {"measurement": "Protozoal Count", "setting": "2 doses 1 wk apart at 167 mg/kg/dose, week 1", "value": "0 number/mL of rumen fluid"},
      {"measurement": "Protozoal Count", "setting": "2 doses 1 wk apart at 167 mg/kg/dose, week 2", "value": "0 number/mL of rumen fluid"},
      {"measurement": "Protozoal Count", "setting": "2 doses 1 wk apart at 167 mg/kg/dose, week 3", "value": "0 number/mL of rumen fluid"},
      {"measurement": "Protozoal Count", "setting": "2 doses 1 wk apart at 167 mg/kg/dose, week 4", "value": "0 number/mL of rumen fluid"},
      {"measurement": "Protozoal Count", "setting": "3 doses 1 wk apart at 167 mg/kg per dose, week 0, 167 mg/kg", "value": "259,000 number/mL of rumen fluid and 242,500 number/mL of rumen fluid and 122,500 number/mL of rumen fluid"},
      {"measurement": "Protozoal Count", "setting": "3 doses 1 wk apart at 167 mg/kg per dose, week 1", "value": "0 number/mL of rumen fluid"},
      {"measurement": "Protozoal Count", "setting": "3 doses 1 wk apart at 167 mg/kg per dose, week 2", "value": "0 number/mL of rumen fluid"},
      {"measurement": "Protozoal Count", "setting": "3 doses 1 wk apart at 167 mg/kg per dose, week 3", "value": "0 number/mL of rumen fluid"},
      {"measurement": "Protozoal Count", "setting": "3 doses 1 wk apart at 167 mg/kg per dose, week 4", "value": "0 number/mL of rumen fluid"},
      {"measurement": "Protozoal Count", "setting": "single dose 167 mg/kg, week 0, 167 mg/kg", "value": "151,500 number/mL of rumen fluid and 300,000 number/mL of rumen fluid and 149,500 number/mL of rumen fluid"},
      {"measurement": "Protozoal Count", "setting": "single dose 167 mg/kg, week 1", "value": "0 number/mL of rumen fluid"},
      {"measurement": "Protozoal Count", "setting": "single dose 167 mg/kg, week 2, 167 mg/kg", "value": "370,000 number/mL of rumen fluid and 0 number/mL of rumen fluid and 4,500 number/mL of rumen fluid"},
      {"measurement": "Protozoal Count", "setting": "single dose 167 mg/kg, week 3", "value": "88,800 number/mL of rumen fluid"}
    ]}
  ]
}
